Reference: patent publication US9493455B2, “Azaindole derivatives as inhibitors of protein kinases” (ORIBASE PHARMA, priority 2012, dated 2016)

Columns and labels:
[1] = test system: BxPC-3; test: In vitro cell proliferation assay (MTT); assay type: cell-based; conditions: Homo sapiens, BXPC-3, 72 h
Procedure: (§1) Cancer cell lines (5×10^3 cells per well) or HUVEC (1×10^4 cells per well) or HRMEC (1×10^4 cells per well) were distributed in 96-well plates and incubating in duplicate with escalating concentrations (10 nM to 3 μM) of compounds for 72 hr. Cell proliferation was measured using MTT (3 [4,5-dimethylthiazol-2-yl]-2,5-diphenyltetrazolium bromide).

[2] = test system: H1975; test: In vitro cell proliferation assay (MTT); assay type: cell-based; conditions: Homo sapiens, NCI-H1975, 72 h
Procedure: as §1

[3] = test system: HUVEC; test: In vitro cell proliferation assay (MTT); assay type: cell-based; conditions: Homo sapiens, 72 h
Procedure: as §1

[4] = biological target: T1, FGFR2 (Homo sapiens, UniProt P21802); test: In vitro kinase assay (Z′-LYTE); assay type: biochemical; conditions: read-out: % of inhibition of the kinase compared to the control
T1 construct: purchased Invitrogen
Procedure: (§2) The inhibitory activity of the compounds on several kinases including BRAF, EGFR (ErbB1), EGFR (ErbB1) T790M L858R, FGFR2, KDR (VEGFR2), PDGFRA (PDGFR alpha), SRC and other was evaluated by Invitrogen using the Z′-LYTE® technology. Briefly, the Z′-LYTE® biochemical assay employs a fluorescence-based, coupled-enzyme format and is based on the differential sensitivity of phosphorylated and non-phosphorylated peptides to proteolytic cleavage. The peptide substrate is labeled with two fluorophores—one at each end—that make up a FRET pair. A ratiometric method, which calculates the ratio (the Emission Ratio) of donor emission to acceptor emission after excitation of the donor fluorophore at 400 nm, is used to quantitate reaction progress.
(§3) The compounds are screened in 1% DMSO (final) in the well. For 10 point titrations, 3-fold serial dilutions are conducted from the starting concentration. All Peptide/Kinase Mixtures are diluted to a 2× working concentration in the appropriate Kinase Buffer. All ATP Solutions are diluted to a 4× working concentration in Kinase Buffer (50 mM HEPES pH 7.5, 0.01% BRIJ-35, 10 mM MgCl2, 1 mM EGTA). ATP Km apparent is previously determined using a Z′-LYTE® assay.
(§4) Each compound was incubated at a concentration of 100 nM (excepted to test the activity against ABL and ABL T315I for which the compounds were incubated at a concentration of 10 μM) and the tables B1 to B12 summarize the results obtained showing the inhibitory power of a compound. The inhibitory activity of OR0512 was also investigated using the same assays and the kinases for which activity was inhibited at more than 50% at the concentration of 100 nM of OR0512 are listed in the table B13.

[5] = biological target: T2, BRAF (Homo sapiens, UniProt P15056); test: In vitro kinase assay (Z′-LYTE); assay type: biochemical; conditions: compound 100 nM; ATP 100 μM; read-out: % of inhibition of the kinase compared to the control
T2 construct: purchased Invitrogen
Procedure: as §2, §3, §4

[6] = biological target: T3, KDR (VEGFR2) (Homo sapiens, UniProt P35968); test: In vitro kinase assay (Z′-LYTE); assay type: biochemical; conditions: read-out: % of inhibition of the kinase compared to the control
T3 construct: purchased Invitrogen
Procedure: as §2, §3, §4

[7] = biological target: T4, EGFR (ErbB1) (Homo sapiens, UniProt P00533); test: In vitro kinase assay (Z′-LYTE); assay type: biochemical; conditions: read-out: % of inhibition of the kinase compared to the control
T4 construct: purchased Invitrogen
Procedure: as §2, §3, §4

[8] = test system: HepG2; test: In vitro cell proliferation assay (MTT); assay type: cell-based; conditions: Homo sapiens, HepG2, 72 h
Procedure: as §1

[9] = biological target: T5, PDGFRA (PDGFR alpha) (Homo sapiens, UniProt P16234); test: In vitro kinase assay (Z′-LYTE); assay type: biochemical; conditions: read-out: % of inhibition of the kinase compared to the control
T5 construct: purchased Invitrogen
Procedure: as §2, §3, §4

[10] = biological target: T6, ABL (Homo sapiens, UniProt P00519); test: In vitro kinase assay (Z′-LYTE); assay type: biochemical; conditions: read-out: % of inhibition of the kinase compared to the control
T6 construct: purchased Invitrogen
Procedure: as §2, §3, §4

[11] = biological target: T7, PDGFRB (Homo sapiens, UniProt P09619); test: In vitro kinase assay (Z′-LYTE); assay type: biochemical; conditions: read-out: % of inhibition of the kinase compared to the control
T7 construct: purchased Invitrogen
Procedure: as §2, §3, §4

[12] = biological target: T8, SRC (Homo sapiens, UniProt P12931); test: In vitro kinase assay (Z′-LYTE); assay type: biochemical; conditions: read-out: % of inhibition of the kinase compared to the control
T8 construct: purchased Invitrogen
Procedure: as §2, §3, §4

[13] = biological target: T9, VEGFR1 (Homo sapiens, UniProt P17948); test: In vitro kinase assay (Z′-LYTE); assay type: biochemical; conditions: read-out: % of inhibition of the kinase compared to the control
T9 construct: purchased Invitrogen
Procedure: as §2, §3, §4

[14] = biological target: T10, EGFR (ErbB1) T790M L858R (Homo sapiens, UniProt P00533, L858R/T790M); test: In vitro kinase assay (Z′-LYTE); assay type: biochemical; conditions: read-out: % of inhibition of the kinase compared to the control
T10 construct: purchased Invitrogen
Procedure: as §2, §3, §4

[15] = biological target: T11, ABL T315I (Homo sapiens, UniProt P00519, T315I); test: In vitro kinase assay (Z′-LYTE); assay type: biochemical; conditions: read-out: % of inhibition of the kinase compared to the control
T11 construct: purchased Invitrogen
Procedure: as §2, §3, §4

[16] = biological target: T12, FGFR1 (Homo sapiens, UniProt P11362); test: In vitro kinase assay (Z′-LYTE); assay type: biochemical; conditions: read-out: % of inhibition of the kinase compared to the control
T12 construct: purchased Invitrogen
Procedure: as §2, §3, §4

[17] = test system: HT29; test: In vitro cell proliferation assay (MTT); assay type: cell-based; conditions: Homo sapiens, HT-29, 72 h
Procedure: as §1

[18] = test system: A549; test: In vitro cell proliferation assay (MTT); assay type: cell-based; conditions: Homo sapiens, A549, 72 h
Procedure: as §1

T4 sequence (P00533 25-1210): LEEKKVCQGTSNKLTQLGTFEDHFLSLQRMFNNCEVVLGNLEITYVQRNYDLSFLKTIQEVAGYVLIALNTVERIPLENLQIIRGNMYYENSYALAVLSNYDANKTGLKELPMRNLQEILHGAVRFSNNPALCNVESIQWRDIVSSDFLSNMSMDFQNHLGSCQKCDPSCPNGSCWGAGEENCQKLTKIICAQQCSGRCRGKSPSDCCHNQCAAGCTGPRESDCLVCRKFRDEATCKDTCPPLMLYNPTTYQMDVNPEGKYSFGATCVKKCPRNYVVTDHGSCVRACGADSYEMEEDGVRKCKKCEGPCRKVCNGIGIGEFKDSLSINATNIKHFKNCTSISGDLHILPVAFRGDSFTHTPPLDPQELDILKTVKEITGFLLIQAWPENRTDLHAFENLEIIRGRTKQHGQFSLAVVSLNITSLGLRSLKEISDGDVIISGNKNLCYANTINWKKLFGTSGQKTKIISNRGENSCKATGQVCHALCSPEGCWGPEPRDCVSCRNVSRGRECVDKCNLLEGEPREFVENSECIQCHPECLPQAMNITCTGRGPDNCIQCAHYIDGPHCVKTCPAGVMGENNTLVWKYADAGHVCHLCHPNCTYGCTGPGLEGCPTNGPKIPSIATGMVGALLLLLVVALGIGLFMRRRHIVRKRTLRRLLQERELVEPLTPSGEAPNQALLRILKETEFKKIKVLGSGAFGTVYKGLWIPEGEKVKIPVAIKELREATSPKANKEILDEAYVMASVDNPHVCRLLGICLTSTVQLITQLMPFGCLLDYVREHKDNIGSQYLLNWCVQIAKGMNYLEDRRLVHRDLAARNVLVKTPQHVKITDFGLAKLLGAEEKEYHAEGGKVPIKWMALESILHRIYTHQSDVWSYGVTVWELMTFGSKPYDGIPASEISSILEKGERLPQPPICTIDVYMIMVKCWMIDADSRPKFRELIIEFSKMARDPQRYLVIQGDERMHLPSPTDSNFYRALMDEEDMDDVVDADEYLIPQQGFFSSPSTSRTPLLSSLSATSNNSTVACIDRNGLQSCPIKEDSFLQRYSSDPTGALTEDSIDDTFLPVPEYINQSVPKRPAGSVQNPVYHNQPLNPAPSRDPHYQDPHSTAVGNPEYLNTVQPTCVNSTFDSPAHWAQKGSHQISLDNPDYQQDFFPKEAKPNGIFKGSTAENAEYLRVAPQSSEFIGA
T7 sequence (P09619 33-1106): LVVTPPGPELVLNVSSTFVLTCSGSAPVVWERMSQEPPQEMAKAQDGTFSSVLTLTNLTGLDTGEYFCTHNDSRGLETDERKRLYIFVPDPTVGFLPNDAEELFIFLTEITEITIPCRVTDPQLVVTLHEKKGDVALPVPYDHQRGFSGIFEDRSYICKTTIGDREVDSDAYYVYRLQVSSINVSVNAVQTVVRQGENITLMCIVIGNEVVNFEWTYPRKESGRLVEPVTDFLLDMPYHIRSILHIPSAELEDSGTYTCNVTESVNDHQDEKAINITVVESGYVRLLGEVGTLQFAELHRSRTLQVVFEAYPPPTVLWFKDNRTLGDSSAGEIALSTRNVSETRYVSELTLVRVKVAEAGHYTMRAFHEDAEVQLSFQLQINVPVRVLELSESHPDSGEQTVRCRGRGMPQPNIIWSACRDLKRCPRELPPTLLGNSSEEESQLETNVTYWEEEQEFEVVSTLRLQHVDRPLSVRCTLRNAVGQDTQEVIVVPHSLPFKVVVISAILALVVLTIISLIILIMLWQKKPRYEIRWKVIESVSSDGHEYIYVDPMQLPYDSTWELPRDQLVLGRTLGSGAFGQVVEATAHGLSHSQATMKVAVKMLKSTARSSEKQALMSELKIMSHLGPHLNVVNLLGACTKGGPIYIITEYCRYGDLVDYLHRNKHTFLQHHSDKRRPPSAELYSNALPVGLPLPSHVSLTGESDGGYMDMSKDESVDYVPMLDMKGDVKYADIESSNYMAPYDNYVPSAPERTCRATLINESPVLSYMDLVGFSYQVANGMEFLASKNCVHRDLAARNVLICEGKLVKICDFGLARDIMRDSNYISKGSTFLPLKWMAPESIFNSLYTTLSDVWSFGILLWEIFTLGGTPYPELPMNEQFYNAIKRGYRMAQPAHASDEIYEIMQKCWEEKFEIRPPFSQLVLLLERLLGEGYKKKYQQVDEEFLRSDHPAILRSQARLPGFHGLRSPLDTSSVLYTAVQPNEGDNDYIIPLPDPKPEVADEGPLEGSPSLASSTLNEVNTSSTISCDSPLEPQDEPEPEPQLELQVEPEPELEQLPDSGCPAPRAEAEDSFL
T2 sequence (P15056 whole entry): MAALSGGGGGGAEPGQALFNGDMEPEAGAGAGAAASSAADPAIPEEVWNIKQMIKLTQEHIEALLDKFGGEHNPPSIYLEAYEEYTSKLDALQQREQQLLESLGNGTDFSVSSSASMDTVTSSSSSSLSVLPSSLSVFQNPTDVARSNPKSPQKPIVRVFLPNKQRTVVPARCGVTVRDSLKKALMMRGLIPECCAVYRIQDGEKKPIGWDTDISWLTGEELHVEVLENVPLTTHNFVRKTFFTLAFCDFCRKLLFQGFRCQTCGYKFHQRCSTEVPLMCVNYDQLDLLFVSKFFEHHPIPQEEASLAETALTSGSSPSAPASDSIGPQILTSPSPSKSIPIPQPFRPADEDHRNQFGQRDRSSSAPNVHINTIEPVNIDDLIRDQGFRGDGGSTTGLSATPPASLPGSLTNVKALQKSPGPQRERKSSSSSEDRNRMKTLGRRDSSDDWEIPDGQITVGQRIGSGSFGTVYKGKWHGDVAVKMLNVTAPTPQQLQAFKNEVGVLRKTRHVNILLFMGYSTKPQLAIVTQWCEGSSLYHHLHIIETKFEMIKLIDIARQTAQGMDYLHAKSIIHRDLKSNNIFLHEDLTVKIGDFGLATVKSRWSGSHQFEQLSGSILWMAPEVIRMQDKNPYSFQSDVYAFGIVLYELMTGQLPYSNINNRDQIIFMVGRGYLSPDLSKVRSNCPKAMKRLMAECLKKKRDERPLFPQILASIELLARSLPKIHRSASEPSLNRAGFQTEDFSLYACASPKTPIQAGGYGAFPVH
T12 sequence (P11362 22-822): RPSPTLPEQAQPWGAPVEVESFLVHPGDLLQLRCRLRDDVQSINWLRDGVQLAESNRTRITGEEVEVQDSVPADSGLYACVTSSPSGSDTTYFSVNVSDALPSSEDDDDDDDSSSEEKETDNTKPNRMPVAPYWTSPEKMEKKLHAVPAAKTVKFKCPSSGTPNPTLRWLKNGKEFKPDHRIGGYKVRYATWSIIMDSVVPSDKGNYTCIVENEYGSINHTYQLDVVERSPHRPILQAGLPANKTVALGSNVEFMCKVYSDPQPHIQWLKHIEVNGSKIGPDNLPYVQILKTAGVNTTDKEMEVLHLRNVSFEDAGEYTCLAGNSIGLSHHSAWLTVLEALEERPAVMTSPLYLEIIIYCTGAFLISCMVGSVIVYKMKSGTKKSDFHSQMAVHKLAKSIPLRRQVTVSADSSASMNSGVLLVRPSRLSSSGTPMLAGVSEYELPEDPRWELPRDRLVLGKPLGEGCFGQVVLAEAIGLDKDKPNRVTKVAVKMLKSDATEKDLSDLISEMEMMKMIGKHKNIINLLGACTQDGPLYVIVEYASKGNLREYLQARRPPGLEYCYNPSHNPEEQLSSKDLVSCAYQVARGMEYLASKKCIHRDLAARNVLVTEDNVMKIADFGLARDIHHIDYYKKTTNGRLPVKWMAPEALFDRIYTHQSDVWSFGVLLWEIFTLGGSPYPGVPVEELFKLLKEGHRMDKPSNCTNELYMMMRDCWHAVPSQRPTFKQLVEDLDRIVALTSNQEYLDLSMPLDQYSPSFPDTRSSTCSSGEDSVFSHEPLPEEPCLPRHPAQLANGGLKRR
T8 sequence (P12931 whole entry): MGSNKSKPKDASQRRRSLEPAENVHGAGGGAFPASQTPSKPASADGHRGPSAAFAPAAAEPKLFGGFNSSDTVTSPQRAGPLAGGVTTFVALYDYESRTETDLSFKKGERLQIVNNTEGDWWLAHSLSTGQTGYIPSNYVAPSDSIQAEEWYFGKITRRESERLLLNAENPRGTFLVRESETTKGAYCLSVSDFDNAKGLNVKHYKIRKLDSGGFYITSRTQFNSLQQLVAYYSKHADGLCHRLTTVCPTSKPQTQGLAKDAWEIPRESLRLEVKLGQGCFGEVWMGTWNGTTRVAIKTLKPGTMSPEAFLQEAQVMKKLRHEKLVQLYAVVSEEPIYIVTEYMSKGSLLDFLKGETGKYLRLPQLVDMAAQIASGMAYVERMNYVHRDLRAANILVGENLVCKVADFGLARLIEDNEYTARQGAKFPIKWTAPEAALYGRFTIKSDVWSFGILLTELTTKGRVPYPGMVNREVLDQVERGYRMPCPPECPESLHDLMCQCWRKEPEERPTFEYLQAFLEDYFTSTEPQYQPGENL

| EC50 [1] [nM] | EC50 [2] [nM] | inhibition at 0.1 µM [4] [%] | inhibition at 0.1 µM [5] [%] | inhibition at 0.1 µM [6] [%] | inhibition at 0.1 µM [7] [%] | EC50 [8] [nM] | inhibition at 0.1 µM [9] [%] | inhibition at 10 µM [10] [%] | inhibition at 0.1 µM [11] [%] | inhibition at 0.1 µM [12] [%] | inhibition at 0.1 µM [13] [%] | inhibition at 0.1 µM [14] [%] | inhibition at 10 µM [15] [%] | inhibition at 0.1 µM [16] [%] | EC50 [17] [nM] | EC50 [18] [nM] | SMILES | EC50 [3] [nM] |
| --- | --- | --- | --- | --- | --- | --- | --- | --- | --- | --- | --- | --- | --- | --- | --- | --- | --- | --- |
| ≥ 1000 | ≥ 1000 |  |  |  |  |  |  |  |  |  |  |  |  |  |  |  | C#Cc1cccc(Nc2ncnc3cc(OCCOC)c(OCCOC)cc23)c1 [Erlotinib, reference compound] | ≥ 1000 |
|  |  | < 50 | ≥ 50 | < 50 | ≥ 50 | ≥ 1000 |  |  |  |  |  |  |  |  |  |  | COC(=O)c1cc2cc(NCc3cc(NC(=O)Nc4cccnc4)ccc3C)cnc2[nH]1 [OR0896] | 100 to 1000 |
|  |  | < 50 | < 50 | < 50 | < 50 | ≥ 1000 | < 50 |  |  |  |  |  |  |  |  |  | COC(=O)c1cc2cc(NCc3cccc(C(=O)Nc4cccnc4)c3)cnc2[nH]1 [OR0916] | ≥ 1000 |
|  |  | < 50 | < 50 | < 50 | < 50 | ≥ 1000 | < 50 |  |  |  |  |  |  |  |  |  | COC(=O)c1cc2cc(NCc3cccc(C(=O)NCc4cccc(C(F)(F)F)c4)c3)cnc2[nH]1 [OR1004] | ≥ 1000 |
| ≥ 1000 |  | < 50 | < 50 | < 50 | < 50 |  | < 50 | ≥ 50 | < 50 | < 50 | < 50 | < 50 | < 50 | < 50 |  |  | COC(=O)c1cc2cc(NC(=O)c3cc(NC(=S)c4cc(-n5cnc(C)c5)cc(C(F)(F)F)c4)ccc3C)cnc2[nH]1 [OR0643] |  |
|  |  | < 50 | < 50 | < 50 | < 50 | ≥ 1000 | < 50 |  |  |  |  |  |  |  |  |  | COC(=O)c1cc2cc(NC(=O)c3cccc(CNC(=O)c4ccc(CN5CCN(C)CC5)c(C(F)(F)F)c4)c3)cnc2[nH]1 [OR0983] | ≥ 1000 |
|  |  | < 50 | < 50 | < 50 | < 50 |  | < 50 | ≥ 50 | < 50 | < 50 | < 50 | < 50 | ≥ 50 | < 50 |  |  | COC(=O)c1cc2cc(NCc3cc(NC(=O)c4ccc(CN5CCN(C)CC5)c(C(F)(F)F)c4)ccc3Cl)cnc2[nH]1 [OR0621] |  |
| ≥ 1000 |  | < 50 | < 50 | < 50 | < 50 |  | < 50 | ≥ 50 | < 50 | < 50 | < 50 | < 50 | < 50 | < 50 |  |  | COC(=O)c1cc2cc(NCc3cc(NS(=O)(=O)c4ccc(C)cc4)ccc3C)cnc2[nH]1 [OR0595] |  |
|  |  | ≥ 50 | < 50 | ≥ 50 | < 50 | ≥ 1000 |  |  |  |  |  |  |  |  |  |  | COC(=O)c1cc2cc(NCc3cccc(C(=O)Nc4ccc(CN5CCN(C)CC5)c(C(F)(F)F)c4)c3)cnc2[nH]1 [OR0635] | 100 to 1000 |
|  |  | < 50 | < 50 | < 50 | ≥ 50 |  | < 50 |  |  | ≥ 50 |  | < 50 |  |  |  |  | COC(=O)c1cc2cc(NCc3cc(NC(=O)c4cc(N5CCN(C)CC5)cc(C(F)(F)F)c4)ccc3C)cnc2[nH]1 [OR0698] |  |
|  |  | < 50 | ≥ 50 | < 50 | < 50 | ≥ 1000 | ≥ 50 |  |  |  |  |  |  |  |  |  | COC(=O)c1cc2cc(NCc3cc(NC(=O)c4cc[nH]c4)ccc3C)cnc2[nH]1 [OR0975] | ≥ 1000 |
| 100 to 1000 |  | < 50 | < 50 | < 50 | < 50 |  | ≥ 50 | ≥ 50 | < 50 | ≥ 50 | < 50 | < 50 | < 50 | < 50 |  |  | COC(=O)c1cc2cc(NCc3cc(NC(=O)c4cccc5c4OCC5)ccc3C)cnc2[nH]1 [OR0618] |  |
|  |  | ≥ 50 | ≥ 50 | ≥ 50 | ≥ 50 | ≥ 1000 |  |  |  |  |  |  |  |  |  |  | COC(=O)c1cc2cc(NCc3cc(NC(=O)c4ccc(CN5CCN(C)CC5)c(F)c4)ccc3C)cnc2[nH]1 [OR0864] |  |
|  |  | < 50 | ≥ 50 | ≥ 50 | ≥ 50 | ≥ 1000 |  |  |  |  |  |  |  |  |  |  | COC(=O)c1cc2cc(NCc3cc(NC(=O)c4ccc(CN5CCC(N(C)C)C5)c(F)c4)ccc3C)cnc2[nH]1 (stereo not shown) [OR0974] | ≥ 1000 |
| 100 to 1000 | ≥ 1000 | < 50 | < 50 | < 50 | ≥ 50 | 100 to 1000 | < 50 |  |  | ≥ 50 |  | < 50 |  |  | 100 to 1000 | 100 to 1000 | CCCOC(=O)c1cc2cc(NCc3cc(NC(=O)c4ccc(CN5CCN(C)CC5)c(C(F)(F)F)c4)ccc3C)cnc2[nH]1 [OR0697, 5-{2-methyl-5-[4-(4-methyl-piperazin-1-ylmethyl)-3-trifluoromethyl-benzoylamino]-benzylamino}-1H-pyrrolo[2,3-b]pyridine-2-carboxylic acid propyl ester] | 100 to 1000 |
| ≥ 1000 |  | < 50 | < 50 | < 50 | ≥ 50 |  | ≥ 50 | ≥ 50 | < 50 | ≥ 50 | < 50 | < 50 | < 50 | < 50 |  |  | COC(=O)c1cc2cc(NCc3cc(NC(=O)c4ccc(-c5csc(C)n5)cc4)ccc3C)cnc2[nH]1 [OR0620] |  |
| 100 to 1000 |  | < 50 | < 50 | < 50 | < 50 |  | ≥ 50 | ≥ 50 | < 50 | ≥ 50 | < 50 | < 50 | < 50 | < 50 |  |  | COC(=O)c1cc2cc(NCc3cc(NC(=O)Nc4cccc(C(F)(F)F)c4)ccc3C)cnc2[nH]1 [OR0603] |  |
